In one test the target is T1, p110α-p85 interaction (Homo sapiens, UniProt P42336, E545K).
T1 construct: tag the endogenous WT or mutant p110α with 3×FLAG at their C termini in DLD1 cells; endogenous in cells; host or cells: DLD1 p110α E545K 3×FLAG knock-in cells
The experiment in a line: Peptide competition assay in cell lysates, p110α-p85 interaction. Type of test: binding. The method, then: FIGS. 3(A-M) illustrate: (A, B) Mapping peptides (P3, SEQ ID NO: 1; P4 SEQ ID NO: 2; P5, SEQ ID NO: 3; P6, SEQ ID NO: 4) derived from mutant p110α that inhibit interaction between IRS1 and p110α E545K. The indicated peptides were added into cell lysates made from the p110α E545K 3×FLAG KI cells. Cell lysates were immunoprecipitated with beads conjugated with anti-FLAG antibodies and then blotted with anti-IRS1 antibodies. (C) Immunoblots of cell lysates made from the p110α E545K 3×FLAG KI cells. Cell lysates were immunoprecipitated with beads conjugated with anti-FLAG antibodies and then blotted with the indicated antibodies. […] (J, K) Immunoblot and graph of purified recombinant p110α E545K mutant proteins mixed with the indicated components and quantified using an in vitro lipid kinase assay. […]
(§1) For Co-immunoprecipitation (Co-IP), cells were harvested, washed with PBS, and then lysed in IP buffer (50 mMTris [pH 7.4], 150 mMNaCl, 5 mMEDTA [pH 8.0], 0.5% NP40, 1 mM PMSF, complete Protease Inhibitor Cocktail tablet [Roche]; supplemented with phosphatase inhibitors [1 mM Na3VO4, 20 mM NaF, 0.1 mM b-glycerophosphate, 20 mM sodium pyrophosphate] when necessary). […] Lysates were then cleared by centrifugation (14,000 rpm, 10 min) and protein concentration in supernatants was determined with a BCA protein assay kit (Pierce, Rockford, Ill.). […]

In test [1] the target is T2, cellular p110α-p85 interaction (Homo sapiens, UniProt P42336, E545K).
T2 construct: tag the endogenous WT or mutant p110α with 3×FLAG at their C termini in DLD1 cells; endogenous in cells; host or cells: DLD1 p110α E545K 3×FLAG knock-in cells
T2 sequence (P42336 whole entry E545K): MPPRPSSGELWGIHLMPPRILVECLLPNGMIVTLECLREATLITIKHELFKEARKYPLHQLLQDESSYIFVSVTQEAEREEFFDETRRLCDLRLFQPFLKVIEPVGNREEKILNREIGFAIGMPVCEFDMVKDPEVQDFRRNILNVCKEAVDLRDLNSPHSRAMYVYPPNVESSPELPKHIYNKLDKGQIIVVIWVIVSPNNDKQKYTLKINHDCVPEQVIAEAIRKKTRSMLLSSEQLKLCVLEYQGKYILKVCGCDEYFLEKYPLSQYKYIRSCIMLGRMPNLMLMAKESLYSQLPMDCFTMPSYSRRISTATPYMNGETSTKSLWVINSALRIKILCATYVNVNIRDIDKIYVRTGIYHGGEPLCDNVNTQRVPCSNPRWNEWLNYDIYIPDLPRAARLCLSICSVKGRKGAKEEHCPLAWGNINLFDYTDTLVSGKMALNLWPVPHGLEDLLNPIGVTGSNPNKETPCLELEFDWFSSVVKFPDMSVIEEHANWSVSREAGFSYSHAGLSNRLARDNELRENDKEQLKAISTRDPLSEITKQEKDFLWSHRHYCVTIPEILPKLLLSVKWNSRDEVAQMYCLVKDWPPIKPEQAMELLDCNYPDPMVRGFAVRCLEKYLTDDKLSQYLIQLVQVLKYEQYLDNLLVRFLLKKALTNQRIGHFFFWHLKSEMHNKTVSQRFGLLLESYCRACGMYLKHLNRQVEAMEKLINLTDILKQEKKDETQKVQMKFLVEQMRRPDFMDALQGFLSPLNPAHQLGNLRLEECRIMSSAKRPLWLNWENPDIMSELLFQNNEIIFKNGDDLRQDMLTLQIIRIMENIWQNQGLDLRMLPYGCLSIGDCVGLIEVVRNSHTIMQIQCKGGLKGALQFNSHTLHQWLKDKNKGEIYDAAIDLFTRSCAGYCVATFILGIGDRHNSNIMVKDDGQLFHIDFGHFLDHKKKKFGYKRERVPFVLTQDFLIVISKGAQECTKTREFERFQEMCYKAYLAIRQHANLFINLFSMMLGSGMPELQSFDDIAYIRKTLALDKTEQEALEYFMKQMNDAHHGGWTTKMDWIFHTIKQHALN
T2 sequence (P27986 whole entry partner): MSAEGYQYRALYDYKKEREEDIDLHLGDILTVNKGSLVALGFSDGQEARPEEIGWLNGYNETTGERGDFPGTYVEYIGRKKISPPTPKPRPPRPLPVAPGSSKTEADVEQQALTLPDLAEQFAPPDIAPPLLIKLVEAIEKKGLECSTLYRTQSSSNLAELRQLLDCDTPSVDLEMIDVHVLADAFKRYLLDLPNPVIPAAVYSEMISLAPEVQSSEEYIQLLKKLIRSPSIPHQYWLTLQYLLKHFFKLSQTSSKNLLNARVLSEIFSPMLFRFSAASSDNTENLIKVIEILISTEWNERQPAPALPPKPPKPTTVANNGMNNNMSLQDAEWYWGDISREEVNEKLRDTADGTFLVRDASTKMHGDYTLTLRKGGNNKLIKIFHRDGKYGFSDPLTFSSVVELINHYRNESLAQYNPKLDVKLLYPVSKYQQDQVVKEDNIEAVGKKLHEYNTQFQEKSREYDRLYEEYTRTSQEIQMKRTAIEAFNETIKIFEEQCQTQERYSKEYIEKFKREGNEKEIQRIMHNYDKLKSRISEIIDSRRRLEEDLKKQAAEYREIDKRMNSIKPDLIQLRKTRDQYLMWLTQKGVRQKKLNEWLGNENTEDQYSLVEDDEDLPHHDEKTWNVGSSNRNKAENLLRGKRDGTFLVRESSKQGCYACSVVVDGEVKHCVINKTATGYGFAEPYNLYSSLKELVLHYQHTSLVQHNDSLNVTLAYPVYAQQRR
The experiment in a line: Co-IP from treated cells, cellular p110α-p85 interaction. Type of test: cell-based. As for the experimental part:
(§2) FIG. 4(A-F) illustrate: (A) Schematic diagram of linear and stapled WT and mutant peptides derived from p110α (SEQ ID NOs: 5, 6, 7 and 8). (B) Immunoblots of cell lysates immunoprecipitated with beads conjugated with anti-FLAG antibodies and then blotted with the indicated antibodies. Linear or stapled WT and mutant peptide were added into culture medium of the p110α E545K 3×FLAG KI cells for 16 hr. (C) Immunoblots of cell lysates immunoprecipitated with anti-p110α antibodies and then blotted with the indicated antibodies. Vaco481 CRC cells were treated with the stapled mutant peptides at the indicated concentration. (D) Immunoblots of cell lysates blotted with the indicated antibodies. The indicated cell lines were treated with the stapled mutant peptide. (E) Immunoblots of cell lysates blotted with the indicated antibodies. […]
as §1

Another test relates to p110α. Nature of the test: Immunoblot of treated cell lines, p110α protein level. It counts as cell-based, human. The method, then: as §2, §1
Another test concerns IRS1 phosphorylation. The experiment in a line: Immunoblot of treated cells, IRS1 phosphorylation. It counts as cell-based, human. The method, then: as §2, §1
The test system of test [2] is DLD1 xenograft tumor (p110α E545K). Nature of the test: Peptide treatment of DLD1 xenograft tumors in athymic nude mice. Type of test: in vivo. Conditions: intratumoral 250 μg daily for 14 days, versus water control. The method, then:
FIGS. 5(A-D) illustrate: (A) An athymic nude mouse with a xenograft Tumor growth of cancer cells harboring the p110α E545K Mutation (A and B) and treated with Stapled p110α E545K Mutant Peptide. Five million DLD1 cells were injected subcutaneously and bilaterally into athymic nude mice. Once the xenograft tumors reach 100-150 mm^3, the left side tumors were injected with the stapled WT peptide and the right side tumors were injected with the stapled mutant peptide daily for 14 days. Ten tumors of similar size in five other athymic nude mice were injected with an equal amount of water as controls. Tumor sizes were measured every 2 days. Representative pictures of mice injected with the peptides are shown in (A) and quantitative measurements are shown in (B). Arrows indicate tumors treated with the stapled WT peptide and the red arrows indicate tumors treated with the stapled mutant peptide. The p value was calculated using ANOVA analysis. […] All quantitative measurements are plotted as mean±SEM.
Animal experiments were approved by the Case Western Reserve University Animal Care and Use Committee. […] Tumor volume was measured with electronic calipers, and volumes were calculated as length 3 width^2/2.
Five-week-old male athymic nude mice were injected with 5 million cells subcutaneously and bilaterally. […] The tumor sizes were measured every 2 days.

Test [3] has as its system HCT116 xenograft tumor (p110α H1047R). Nature of the test: Peptide treatment of HCT116 xenograft tumors in athymic nude mice. Type of test: in vivo. Conditions: intratumoral 250 μg daily for 14 days.

Bridges are numbered along the chain shown (N, C = ends). Where no end group is shown, it is not given here. [ ]: non-standard residue; d: D form. S5 = C=CCCC[C@](C)(N)C(=O)O

T1 sequence (P42336 whole entry E545K): as the sequence (P42336 whole entry E545K) above
T1 sequence (P27986 whole entry partner): as the sequence (P27986 whole entry partner) above

Turning to “H2N-SEITKQEK-D^549-FLW-S^553-HRHYC-COOH [stapled mutant peptide]”, the “effect on p110α-p85 interaction” value with p110α-p85 interaction is given as “no effects”. Moreover, the “cellular p110α-p85 interaction” value in test [1] is reported as “did not interfere”. In the test on p110α, the “protein levels of p110α” value is reported as “slightly reduce”. Moreover, in the test with IRS1 phosphorylation, the IRS1 phosphorylation entry is “did not interfere”. The “DLD1 xenograft tumor growth” value in test [2] is recorded as “significantly slowed”. Further, the “xenograft tumor growth of HCT116 CRC cells” value in test [3] is reported as “neither the stapled WT nor the stapled mutant peptide inhibited”.
As for “H2N-SEITEQEKD^549-FLW-S^553-HRHYC-COOH (SEITEQEK[S5]FLW[S5]HRHYC; staple 9-13; not fully specified (N-terminus, C-terminus); printed as H2N-SEITEQEKD549-FLW-S553-HRHYC-COOH; listed as Homo sapiens) [stapled WT peptide, stapled wild-type p110α counterpart of the stapled mutant peptide, used as control, reference compound]”, in test [2], the “DLD1 xenograft tumor growth” value is “did not inhibit”. Also, the “xenograft tumor growth of HCT116 CRC cells” value in test [3] is “neither the stapled WT nor the stapled mutant peptide inhibited”.
